Reference: US20120077673A1, “Fungicidal Compositions and Methods of Use” (priority 2010, published 2012)

Legend:
Assay type in all cases: in vivo
[1] = system: Pythium; experiment: Corn field trial, Pythium-infected seeds, seed treatment, soil not inoculated (Example 1); design: Density: unit not given here; conditions: for Vigor: subjective score, lower more favorable
From the text: Unlike other experiments disclosed herein, the soil for the experiment of EXAMPLE 1 was not inoculated with Pythium. Uninfected untreated, and Pythium-infected untreated seeds served as controls. Triadimenol, 15% w/v, is a systemic broad-spectrum fungicide used for cereal seed treatment, but has no activity against Pythium spp. Metalaxyl, 28.35% w/v, provides systemic protection for the seed, roots, and emerging plants against Pythium, systemic downy mildew, and Phytophthora. For corn, the industry standard dosage of metalaxyl is 2 grams of active ingredient per 100 kilograms of seed (2 GA/100 Kg). Saponin, 49.65% v/v extract of Chenopodium quinoa saponins, contained approximately equimolar amounts of triterpene bidesmosidic glycosides of oleanolic acid, hederagenin, and phytolaccagenic acid. […] In TABLE 1, “Vigor” represents a subjective measure of plant health and is based on uniformity, consistent plant mass, and consistent plant spacing, with lower scores being more favorable than higher scores. The data of TABLE 1 are shown graphically in FIGS. 1A and 1B. As shown by TABLE 1 and FIGS. 1A and 1B, the count and the density increased—over time—for all treatment conditions. The relative density, however, decreased over time for the […] and metalaxyl (2 GA/100 kg) categories. The relative density remained the same for the untreated/uninfected category because it provided the reference point (i.e., the relative densities were calculated with reference to the untreated/uninfected category).

[2] = system: Pythium; experiment: Cotton field trial, Pythium-infected seeds, seed treatment, control or Pythium-inoculated soil (Example 2)
From the text: The seeds were planted in a field, either in soil that had been inoculated with Pythium (Soil Inoc. with Pythium), or in soil that had not been inoculated with Pythium (Ctrl.), then allowed to grow. Concentrations and compositions of triadimenol, metalaxyl, and saponin are the same as given in Example 1. For cotton, the industry standard dosage of metalaxyl is 15.5 grams of active ingredient per 100 kilograms of seed (15.5 GA/100 Kg). […] The data of TABLE 2 are shown graphically in FIG. 2. The relative densities for the data of TABLE 2 and FIG. 2 were calculated with reference to the 15.5 GA/100 Kg metalaxyl category. As shown by TABLE 2 and FIG. 2, inoculation of the soil with Pythium was correlated with a general decrease in cotton seedling count and density (compare Ctrl. versus Inoc.).

[3] = system: Pythium; experiment: Cucumber field trial, Pythium-infected seeds, seed treatment, control or Pythium-inoculated soil (Example 3); design: Density: unit not given here
From the text: The seeds were planted in a field, either in soil that had been inoculated with Pythium (Soil Inoc. with Pythium), or in soil that had not been inoculated with Pythium (Ctrl.), then allowed to grow. Concentrations and compositions of triadimenol, metalaxyl, and saponin are the same as given in Example 1. For cucumber, the industry standard dosage of metalaxyl is 15.5 grams of active ingredient per 100 kilograms of seed (15.5 GA/100 Kg). […] The data of TABLE 3 are shown graphically in FIG. 3. The relative densities for the data of TABLE 3 and FIG. 3 were calculated with reference to the 31 GA/100 Kg metalaxyl category. As shown by TABLE 3 and FIG. 3, inoculation of the soil with Pythium was correlated with a general decrease in cucumber seedling count, density, and relative density (compare Ctrl. versus Inoc.).

[4] = system: Pythium; experiment: Corn hybrids greenhouse trial, Pythium-infected seeds, seed treatment (Example 4)
From the text: Concentrations and compositions of triadimenol, metalaxyl, and saponin are the same as given in Example 1. The data of TABLE 4 are shown graphically in FIGS. 4A and 4B. As shown by TABLE 4 and FIGS. 4A and 4B, pre-treatment of both varieties of corn seeds with 1 GA/100 Kg metalaxyl and 0.6 GA/100 Kg yielded counts similar to those achieved from pre-treatment of seeds with either 2 GA/100 Kg metalaxyl (the industry standard dose for corn) or 7.5 GA/100 Kg metalaxyl.

[5] = system: Pythium ultimum; experiment: Cotton varieties greenhouse trial, metalaxyl-resistant Pythium ultimum (Example 5)
From the text: Two different varieties of cotton seedlings (Variety A, and Variety B) that were infected with Pythium ultimum were exposed to various rates of metalaxyl, saponins, or metalaxyl+Saponin, and then allowed to grow in a greenhouse to determine whether the effects observed in the field could be reproduced in a greenhouse setting. This particular strain of Pythium ultimum was shown previously to have a mid-degree of resistance to seed treatments containing metalaxyl and/or L-metalaxyl. […] The stand counts from Variety B show a similar trend with the 1 GA/100 Kg rate of metalaxyl (see FIG. 5B).

[6] = Triadimenol 30 GA/100 Kg, 30 DAA
[7] = Triadimenol 30 GA/100 Kg, 46 DAA
[8] = Triadimenol 30 GA/100 Kg, 34 DAA, Ctrl. soil
[9] = Triadimenol 30 GA/100 Kg, 34 DAA, Soil Inoc. with Pythium
[10] = Triadimenol 30 GA/100 Kg, 46 DAA, Ctrl. soil
[11] = Triadimenol 30 GA/100 Kg, 46 DAA, Soil Inoc. with Pythium
[12] = Triadimenol 30 GA/100 Kg, 18 DAA, Ctrl. soil
[13] = Triadimenol 30 GA/100 Kg, 18 DAA, Soil Inoc. with Pythium
[14] = Triadimenol 30 GA/100 Kg, 33 DAA, Ctrl. soil
[15] = Triadimenol 30 GA/100 Kg, 33 DAA, Soil Inoc. with Pythium
[16] = Triadimenol 30 GA/100 Kg, Day 2
[17] = Triadimenol 30 GA/100 Kg, Day 7
[18] = Triadimenol 30 GA/100 Kg, Day 14
[19] = Metalaxyl 7.5 GA/100 Kg, 30 DAA
[20] = Metalaxyl 7.5 GA/100 Kg, 46 DAA
[21] = Metalaxyl 15.5 GA/100 Kg, 34 DAA, Ctrl. soil
[22] = Metalaxyl 15.5 GA/100 Kg, 34 DAA, Soil Inoc. with Pythium
[23] = Metalaxyl 15.5 GA/100 Kg, 46 DAA, Ctrl. soil
[24] = Metalaxyl 15.5 GA/100 Kg, 46 DAA, Soil Inoc. with Pythium
[25] = Metalaxyl 31 GA/100 Kg, 34 DAA, Ctrl. soil
[26] = Metalaxyl 31 GA/100 Kg, 34 DAA, Soil Inoc. with Pythium
[27] = Metalaxyl 31 GA/100 Kg, 46 DAA, Ctrl. soil
[28] = Metalaxyl 31 GA/100 Kg, 46 DAA, Soil Inoc. with Pythium
[29] = Metalaxyl 15.5 GA/100 Kg, 18 DAA, Ctrl. soil
[30] = Metalaxyl 15.5 GA/100 Kg, 18 DAA, Soil Inoc. with Pythium
[31] = Metalaxyl 15.5 GA/100 Kg, 33 DAA, Ctrl. soil
[32] = Metalaxyl 31 GA/100 Kg, 18 DAA, Ctrl. soil
[33] = Metalaxyl 31 GA/100 Kg, 18 DAA, Soil Inoc. with Pythium
[34] = Metalaxyl 31 GA/100 Kg, 33 DAA, Ctrl. soil
[35] = Metalaxyl 31 GA/100 Kg, 33 DAA, Soil Inoc. with Pythium
[36] = Metalaxyl 7.5 GA/100 Kg, Day 14

CC(C)(C)C(O)C(Oc1ccc(Cl)cc1)n1cncn1 (stereo not drawn) [Triadimenol]
Count [1, 6]: 21 | Density [1, 6]: 25.9 | Relative Density [1, 6]: 69.2 | Count [1, 7]: 60 | Density [1, 7]: 74.4 | Relative Density [1, 7]: 96.4 | Vigor [1, 7]: 4.50 | Count [2, 8]: 39.5 | Density [2, 8]: 79 | Relative Density [2, 8]: 106.8 | Count [2, 9]: 18.3 | Density [2, 9]: 36.5 | Relative Density [2, 9]: 73 | Count [2, 10]: 40.3 | Density [2, 10]: 80.5 | Relative Density [2, 10]: 107.3 | Count [2, 11]: 17.5 | Density [2, 11]: 35 | Relative Density [2, 11]: 71.4 | Count [3, 12]: 28 | Density [3, 12]: 56 | Relative Density [3, 12]: 80 | Count [3, 13]: 10 | Density [3, 13]: 20 | Relative Density [3, 13]: 34.5 | Count [3, 14]: 28.3 | Density [3, 14]: 56.5 | Relative Density [3, 14]: 83.1 | Count [3, 15]: 4.3 | Density [3, 15]: 8.5 | Relative Density [3, 15]: 16.2 | Count, Hybrid A [4, 16]: 62 | Count, Hybrid B [4, 16]: 24 | Count, Hybrid A [4, 17]: 72 | Count, Hybrid B [4, 17]: 40 | Count, Hybrid A [4, 18]: 74 | Count, Hybrid B [4, 18]: 40

COCC(=O)N(c1c(C)cccc1C)C(C)C(=O)OC (stereo not drawn) [Metalaxyl]
Count ([1]; Metalaxyl 2 GA/100 Kg, 30 DAA): 37 | Density ([1]; Metalaxyl 2 GA/100 Kg, 30 DAA): 46.6 | Relative Density ([1]; Metalaxyl 2 GA/100 Kg, 30 DAA): 124.2 | Count ([1]; Metalaxyl 2 GA/100 Kg, 46 DAA): 73 | Density ([1]; Metalaxyl 2 GA/100 Kg, 46 DAA): 90.9 | Relative Density ([1]; Metalaxyl 2 GA/100 Kg, 46 DAA): 117.8 | Vigor ([1]; Metalaxyl 2 GA/100 Kg, 46 DAA): 3.75 | Count [1, 19]: 34 | Density [1, 19]: 42.8 | Relative Density [1, 19]: 114.2 | Count [1, 20]: 73 | Density [1, 20]: 91.6 | Relative Density [1, 20]: 118.6 | Vigor [1, 20]: 3.5 | Relative Density ([2]; Metalaxyl 15.5 GA/100 Kg (reference), 34 DAA, Ctrl. soil): 100 | Relative Density ([2]; Metalaxyl 15.5 GA/100 Kg (reference), 34 DAA, Soil Inoc. with Pythium): 100 | Relative Density ([2]; Metalaxyl 15.5 GA/100 Kg (reference), 46 DAA, Ctrl. soil): 100 | Relative Density ([2]; Metalaxyl 15.5 GA/100 Kg (reference), 46 DAA, Soil Inoc. with Pythium): 100 | Count [2, 21]: 37 | Density [2, 21]: 74 | Count [2, 22]: 25 | Density [2, 22]: 50 | Count [2, 23]: 37.5 | Density [2, 23]: 75 | Count [2, 24]: 24.5 | Density [2, 24]: 49 | Count [2, 25]: 38 | Density [2, 25]: 76 | Relative Density [2, 25]: 102.7 | Count [2, 26]: 26.5 | Density [2, 26]: 53 | Relative Density [2, 26]: 106 | Count [2, 27]: 37 | Density [2, 27]: 74 | Relative Density [2, 27]: 98.7 | Count [2, 28]: 24.5 | Density [2, 28]: 49 | Relative Density [2, 28]: 100 | Count [3, 29]: 42.5 | Density [3, 29]: 85 | Relative Density [3, 29]: 121.4 | Count [3, 30]: 26 | Density [3, 30]: 52 | Relative Density [3, 30]: 89.7 | Count [3, 31]: 41.8 | Density [3, 31]: 83.5 | Relative Density [3, 31]: 122.8 | Relative Density ([3]; Metalaxyl 31 GA/100 Kg (reference), 18 DAA, Ctrl. soil): 100 | Relative Density ([3]; Metalaxyl 31 GA/100 Kg (reference), 18 DAA, Soil Inoc. with Pythium): 100 | Relative Density ([3]; Metalaxyl 31 GA/100 Kg (reference), 33 DAA, Ctrl. soil): 100 | Count [3, 32]: 35 | Density [3, 32]: 70 | Count [3, 33]: 29 | Density [3, 33]: 58 | Count [3, 34]: 34 | Density [3, 34]: 68 | Count [3, 35]: 8.3 | Density [3, 35]: 16.5 | Relative Density [3, 35]: 31.4 | Count, Hybrid A ([4]; Metalaxyl 2 GA/100 Kg, Day 2): 92 | Count, Hybrid B ([4]; Metalaxyl 2 GA/100 Kg, Day 2): 74 | Count, Hybrid A ([4]; Metalaxyl 2 GA/100 Kg, Day 7): 98 | Count, Hybrid B ([4]; Metalaxyl 2 GA/100 Kg, Day 7): 88 | Count, Hybrid A ([4]; Metalaxyl 2 GA/100 Kg, Day 14): 98 | Count, Hybrid B ([4]; Metalaxyl 2 GA/100 Kg, Day 14): 88 | Count, Hybrid A ([4]; Metalaxyl 7.5 GA/100 Kg, Day 2): 94 | Count, Hybrid B ([4]; Metalaxyl 7.5 GA/100 Kg, Day 2): 64 | Count, Hybrid A ([4]; Metalaxyl 7.5 GA/100 Kg, Day 7): 96 | Count, Hybrid B ([4]; Metalaxyl 7.5 GA/100 Kg, Day 7): 94 | Count, Hybrid A [4, 36]: 96 | Count, Hybrid B [4, 36]: 98 | Count, Variety A ([5]; Metalaxyl 1 GA/100 Kg, Day 6): 76 | Count, Variety B ([5]; Metalaxyl 1 GA/100 Kg, Day 6): 77 | Count, Variety A ([5]; Metalaxyl 1 GA/100 Kg, Day 14): 57 | Count, Variety B ([5]; Metalaxyl 1 GA/100 Kg, Day 14): 26 | Count, Variety A ([5]; Metalaxyl 1 GA/100 Kg, Day 19): 24 | Count, Variety B ([5]; Metalaxyl 1 GA/100 Kg, Day 19): 5 | Count, Variety A ([5]; Metalaxyl 5 GA/100 Kg, Day 6): 70 | Count, Variety B ([5]; Metalaxyl 5 GA/100 Kg, Day 6): 94 | Count, Variety A ([5]; Metalaxyl 5 GA/100 Kg, Day 14): 73 | Count, Variety B ([5]; Metalaxyl 5 GA/100 Kg, Day 14): 84 | Count, Variety A ([5]; Metalaxyl 5 GA/100 Kg, Day 19): 49 | Count, Variety B ([5]; Metalaxyl 5 GA/100 Kg, Day 19): 45 | Count, Variety A ([5]; Metalaxyl 10 GA/100 Kg, Day 6): 73.75 | Count, Variety B ([5]; Metalaxyl 10 GA/100 Kg, Day 6): 83 | Count, Variety A ([5]; Metalaxyl 10 GA/100 Kg, Day 14): 77.5 | Count, Variety B ([5]; Metalaxyl 10 GA/100 Kg, Day 14): 85 | Count, Variety A ([5]; Metalaxyl 10 GA/100 Kg, Day 19): 72.5 | Count, Variety B ([5]; Metalaxyl 10 GA/100 Kg, Day 19): 68 | Count, Variety A ([5]; Metalaxyl 15 GA/100 Kg, Day 6): 60 | Count, Variety B ([5]; Metalaxyl 15 GA/100 Kg, Day 6): 83 | Count, Variety A ([5]; Metalaxyl 15 GA/100 Kg, Day 14): 81.25 | Count, Variety B ([5]; Metalaxyl 15 GA/100 Kg, Day 14): 80 | Count, Variety A ([5]; Metalaxyl 15 GA/100 Kg, Day 19): 36.25 | Count, Variety B ([5]; Metalaxyl 15 GA/100 Kg, Day 19): 62
